Values of other authors, collected in patent US9642863B2, “Methods for treating chronic or unresolvable pain and/or increasing the pain threshold in a subject and pharmaceutical compositions for use therein” (White Mountain Pharma, Inc., priority 2010, dated 2017).

Experiments:
women with fibromyalgia = settings: female fibromyalgia patients, transdermal testosterone
[1] = system: chronic pain subjects on maintenance opioids; settings: four patients, testosterone adjunctive to primary opioid therapy, anecdotal
rats = settings: treatment with testosterone
[2] = genotypic females dosed with testosterone, 36 months
[3] = system: female-to-male transsexuals; settings: doses of testosterone at or above the male reference range

C[C@]12CC[C@H]3[C@@H](CCC4=CC(=O)CC[C@@]43C)[C@@H]1CC[C@@H]2O [testosterone]
fibromyalgia muscle tender point pain (women with fibromyalgia): significantly improve
quality of life [1]: improved quality of life
pain responses to the formalin test (rats): decreased pain responses
stable serum total testosterone levels [2]: about 620+/−130 ng/dL
side effects [3]: develop hirsutism and male-like increased risk for cardiovascular disease and diabetes
